Laboratory results taken from patent US7087610B2, “Benzothiazole antiviral agents” (priority 2004, dated 2006).

Tested on: single-round infectious reporter virus (HIV-1 envelope)
Experiment: HIV-1 single-round infectious luciferase reporter virus infection of HeLa CD4 cells
Format: cell-based
Settings: Human immunodeficiency virus 1, HeLa, 72 h
Protocol: Cells: (virus production) human embryonic kidney cell line, 293, was propagated in Dulbecco's Modified Eagle Medium (Invitrogen, Carlsbad, Calif.) containing 10% fetal Bovine serum (FBS, Sigma, St. Louis, Mo.); (virus infection) human epithelial cell line, HeLa, expressing the HIV-1 receptor CD4 was propagated in Dulbecco's Modified Eagle Medium (Invitrogen, Carlsbad, Calif.) containing 10% fetal Bovine serum (FBS, Sigma, St. Louis, Mo.) and supplemented with 0.2 mg/mL Geneticin (Invitrogen, Carlsbad, Calif.).
Virus: single-round infectious reporter virus was produced by co-transfecting human embryonic kidney 293 cells with an HIV-1 envelope DNA expression vector and a proviral cDNA containing an envelope deletion mutation and the luciferase reporter gene inserted in place of HIV-1 nef sequences. Transfections were performed using lipofectAMINE PLUS reagent as described by the manufacturer (Invitrogen, Carlsbad, Calif.).
Experiment: HeLa CD4 cells were plated in 96 well plates at a cell density of 1×10^4 cells per well in 100 μl Dulbecco's Modified Eagle Medium containing 10 % fetal Bovine serum and incubated overnight. Compound was added in a 2 μl dimethylsulfoxide solution, so that the final assay concentration would be ≦10 μM. Single-round infectious reporter virus (100 μL) in Dulbecco's Modified Eagle Medium was then added to the plated cells and compound at an approximate multiplicity of infection (MOI) of 0.01, resulting in a final volume of 200 μl per well. Virally-infected cells were incubated at 37 degrees Celsius, in a CO2 incubator, and harvested 72 h after infection. Viral infection was monitored by measuring luciferase expression from viral DNA in the infected cells using a luciferase reporter gene assay kit, as described by the manufacturer (Roche Molecular Biochemicals, Indianapolis, Ind.). Infected cell supernatants were removed and 50 μl of lysis buffer was added per well. After 15 minutes, 50 μl of freshly-reconstituted luciferase assay reagent was added per well. Luciferase activity was then quantified by measuring luminescence using a Wallac microbeta luminescence reader.
The percent inhibition for each compound was calculated by quantifying the level of luciferase expression in cells infected in the presence of each compound as a percentage of that observed for cells infected in the absence of compound and subtracting such a determined value from 100. The effective concentration for fifty percent inhibition (EC50) was calculated with Microsoft Excel Xlfit curve fitting software. For each compound, curves were generated from percent inhibition calculated at 10 different concentrations by using a four paramenter logistic model (model 205).

SMILES	EC50
C[C@@H]1CN(C(=O)c2ccccc2)CCN1C(=O)C(C#N)c1nc2ccccc2s1 (stereo partly drawn) [Example 1, (R)-N-(benzoyl)-3-methyl-N′-[(benzothiazol-2-yl)-2-cyanoacetyl]-piperazine]	< 1000 nM
C[C@@H]1CN(C(=O)c2ccccc2)CCN1C(=O)C(=O)c1nc2ccccc2s1 [Example 2, (R)-N-(benzoyl)-3-methyl-N′-[(benzothiazol-2-yl)-2-oxoacetyl]-piperazine]	< 1000 nM
C[C@@H]1CN(C(=O)c2ccccc2)CCN1C(=O)C(=O)c1ccc2scnc2c1 [Example 4, (R)-N-(benzoyl)-3-methyl-N′-[(benzothiazol-5-yl)-2-oxoacetyl]piperazine]	< 1000 nM
C[C@@H]1CN(C(=O)c2ccccc2)CCN1C(=O)C(=O)c1ccc2sc(-n3cccc3)nc2c1 [Example 7]	< 1000 nM
C[C@@H]1CN(C(=O)c2ccccc2)CCN1C(=O)C(=O)c1ccc2sc(N)nc2c1 [Example 8]	< 1000 nM
